biological target: T1, cardiac β-receptors (Felis catus, UniProt Q9TST6); experiment: inhibition of the tachycardia produced by injection of 0.2 μg/kg isoprenaline into a chloralose-anaesthetised cat (β-adrenergic blocking activity); assay type: in vivo; settings: cat, read-out: ED50, Compound A
T1 construct: bodyweight of isoprenaline into a chloralose-anaesthetised cat; from tissue; host or cells: heart of the living chloralose-anaesthetised cat (in vivo)
Protocol: The comparison of the β-adrenergic blocking activity of compounds of the present invention with those of the said prior specification may be carried out using a test standard in the art, namely the inhibition of the tachycardia produced by the injection of 0.2 μg. per kg. bodyweight of isoprenaline into a chloralose-anaesthetised cat.

T1 sequence (Q9TST6 whole entry): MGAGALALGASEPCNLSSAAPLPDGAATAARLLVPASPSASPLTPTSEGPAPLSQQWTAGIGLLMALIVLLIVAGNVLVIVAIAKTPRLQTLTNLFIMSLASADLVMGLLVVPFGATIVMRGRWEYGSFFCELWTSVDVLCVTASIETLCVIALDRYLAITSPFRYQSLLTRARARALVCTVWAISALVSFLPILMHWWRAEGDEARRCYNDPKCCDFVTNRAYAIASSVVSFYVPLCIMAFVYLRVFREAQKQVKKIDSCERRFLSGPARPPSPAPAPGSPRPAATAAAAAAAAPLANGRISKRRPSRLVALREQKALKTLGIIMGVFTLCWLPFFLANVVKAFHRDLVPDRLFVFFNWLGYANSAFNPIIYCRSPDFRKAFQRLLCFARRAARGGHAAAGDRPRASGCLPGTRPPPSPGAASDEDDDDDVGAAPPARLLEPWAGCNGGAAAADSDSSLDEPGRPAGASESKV

Compound | ED50
CC(C)NCC(O)COc1ccc(CC(N)=O)cc1 (stereo not shown) [Compound A, R^1 isopropyl, R^2 H, reference compound] | 0.096 mg/kg

same assay, conditions: inhibition of tachycardia by 0.2 μg/kg isoprenaline, chloralose-anaesthetised cat; per kg bodyweight; read-out: 50% inhibitory dose (ED50), β-adrenergic blocking activity

ED50 | Compound
0.481 mg/kg | CC(C)NCC(O)COc1ccccc1CC(N)=O (stereo not shown) [1-o-carbamoylmethylphenoxy-3-isopropylaminopropan-2-ol, reference compound]
0.058 mg/kg | CC(C)NCC(O)COc1ccccc1OCC(N)=O (stereo not shown) [Compound B, R^1 isopropyl, R^3 H, 1-isopropylamino-3-(o-carbamoylmethoxyphenoxy)propan-2-ol]
~0.2 mg/kg | CC(=O)Nc1ccc(OCC(O)CNC(C)C)cc1 (stereo not shown) [practolol, reference compound]

same assay, conditions: ortho-substituted compounds of the invention; chloralose-anaesthetised cat, isoprenaline 0.2 μg/kg; read-out: ED50, Compound B

ED50 | Compound
0.058 mg/kg | CC(C)NCC(O)COc1ccccc1OCC(N)=O (stereo not shown) [Compound B, R^1 isopropyl, R^3 H, 1-isopropylamino-3-(o-carbamoylmethoxyphenoxy)propan-2-ol]
0.034 mg/kg | C=CCNC(=O)COc1ccccc1OCC(O)CNC(C)C (stereo not shown) [Compound B, R^1 isopropyl, R^3 allyl, 1-isopropylamino-3-(o-N-allylcarbamoylmethoxyphenoxy)propan-2-ol]
0.2 mg/kg | CC(C)NCC(O)COc1ccccc1OCC(=O)NC(C)C (stereo not shown) [Compound B, R^1 isopropyl, R^3 isopropyl, 1-isopropylamino-3-(o-N-isopropylcarbamoylmethoxyphenoxy)propan-2-ol]
0.02 mg/kg | CNC(=O)COc1ccccc1OCC(O)CNC(C)C (stereo not shown) [Compound B, R^1 isopropyl, R^3 methyl, 1-isopropylamino-3-(o-N-methylcarbamoylmethoxyphenoxy)propan-2-ol]
0.143 mg/kg | CCCCNC(=O)COc1ccccc1OCC(O)CNC(C)C (stereo not shown) [Compound B, R^1 isopropyl, R^3 n-butyl]
0.011 mg/kg | CC(C)(C)NCC(O)COc1ccccc1OCC(N)=O (stereo not shown) [Compound B, R^1 t-butyl, R^3 H, 1t-butylamino-3-(o-carbamoylmethoxyphenoxy)propan-2-ol]

same assay, conditions: other highly active compounds of the invention; chloralose-anaesthetised cat, isoprenaline 0.2 μg/kg; read-out: ED50

ED50 | Compound
0.03 mg/kg | CNC(=O)COc1ccccc1OCC(O)CNC(C)(C)CO (stereo not shown)
0.009 mg/kg | CC(C)NCC(O)COc1ccccc1OCC(=O)NCCO (stereo not drawn) [R^1 isopropyl, R^3 2-hydroxyethyl, 1-o-(N-β-hydroxyethylcarbamoylmethoxy)phenoxy-3-isopropylamino-2-propanol]
0.027 mg/kg | COCCNC(=O)COc1ccccc1OCC(O)CNC(C)C (stereo not drawn) [R^1 isopropyl, R^3 2-methoxyethyl, 1-o-(N-β-methoxyethylcarbamoylmethoxy)phenoxy-3-isopropylamino-2-propanol]
0.047 mg/kg | CC(C)NCC(O)COc1ccccc1OCC(=O)NCCCO (stereo not shown) [R^1 isopropyl, R^3 3-hydroxypropyl, 1-o-(N-γ-hydroxypropylcarbamoylmethoxy)phenoxy-3-isopropylamino-2-propanol]
0.068 mg/kg | CCNC(=O)COc1ccccc1OCC(O)CNC(C)C (stereo not shown) [R^1 isopropyl, R^3 ethyl, 1-isopropylamino-3-(o-N-ethylcarbamoylmethoxyphenoxy)propan-2-ol]
0.04 mg/kg | CC(C)(C)NCC(O)COc1ccccc1OCC(=O)NCCO (stereo not drawn) [R^1 t-butyl, R^3 2-hydroxyethyl, 1-o-(N-β-hydroxyethylcarbamoylmethoxy)phenoxy-3-t-butylaminopropan-2-ol]
0.074 mg/kg | CC(C)(C)NCC(O)COc1ccccc1OCC(=O)NCCCO (stereo not shown) [R^1 t-butyl, R^3 3-hydroxypropyl, 1-o-(N-γ-hydroxypropylcarbamoyl-methoxy)phenoxy-3-t-butylamino-2-propanol]
0.027 mg/kg | C=CCNC(=O)COc1ccccc1OCC(O)CNC(C)(C)C (stereo not shown) [R^1 t-butyl, R^3 allyl, 1-t-butylamino-3-(o-N-allylcarbamoylmethoxyphenoxy)propan-2-ol]
0.018 mg/kg | CCNC(=O)COc1ccccc1OCC(O)CNC(C)(C)C (stereo not shown) [R^1 t-butyl, R^3 ethyl, 1-t-butylamino-3-(o-N-ethylcarbamoylmethoxyphenoxy)propan-2-ol]
0.014 mg/kg | CNC(=O)COc1ccccc1OCC(O)CNC(C)(C)C (stereo not shown) [R^1 t-butyl, R^3 methyl, 1-t-butylamino-3-(o-N-methylcarbamoylmethoxyphenoxy)propan-2-ol]

same assay, conditions: para-substituted prior-art compounds; chloralose-anaesthetised cat, isoprenaline 0.2 μg/kg; read-out: ED50, Compound A

ED50 | Compound
1.47 mg/kg | C=CCNC(=O)Cc1ccc(OCC(O)CNC(C)C)cc1 (stereo not shown) [Compound A, R^1 isopropyl, R^2 allyl, reference compound]
0.225 mg/kg | CC(C)NCC(O)COc1ccc(CC(=O)NC(C)C)cc1 (stereo not shown) [Compound A, R^1 isopropyl, R^2 isopropyl, reference compound]
0.335 mg/kg | CNC(=O)Cc1ccc(OCC(O)CNC(C)C)cc1 (stereo not shown) [Compound A, R^1 isopropyl, R^2 methyl, reference compound]
0.606 mg/kg | CCCCNC(=O)Cc1ccc(OCC(O)CNC(C)C)cc1 (stereo not shown) [Compound A, R^1 isopropyl, R^2 n-butyl, reference compound]
0.136 mg/kg | CC(C)(C)NCC(O)COc1ccc(CC(N)=O)cc1 (stereo not shown) [Compound A, R^1 t-butyl, R^2 H, reference compound]
